Test results: patent publication EP2951180B1, “2,6,7,8 SUBSTITUTED PURINES AS HDM2 INHIBITORS” (Merck Sharp & Dohme Corp., priority 2013, dated 2014)

These compounds were tested against T1, HDM2 (Homo sapiens, UniProt Q00987) (assay: FRET assay (HDM2 inhibition; method not described in this part)). Conditions: Table 2.
T1 construct: Thioredoxin (N); made in house; host or cells: E. coli strain BL21(DE3)Rosetta
Format: binding

T1 sequence (Q00987 17-125): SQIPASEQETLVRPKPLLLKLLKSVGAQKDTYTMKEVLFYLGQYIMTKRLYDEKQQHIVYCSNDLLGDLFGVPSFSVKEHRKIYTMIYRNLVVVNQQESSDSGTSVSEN

SMILES | IC50 [nM]
C[C@@H](Nc1nc(C(=O)O)nc2nc(-c3cccc(OC(F)(F)F)c3)n(Cc3ccc(C(F)(F)F)cc3)c12)C1CCC1 [Example 2.39, 6-{[(1R)-1-cyclobutylethyl]amino}-8-[3-(trifluoromethoxy)phenyl]-7-[4-(trifluoromethyl)benzyl]-7H-purine-2-carboxylic acid] | 52
C[C@@H](Nc1nc(C(=O)O)nc2nc(-c3cccc(Cl)c3)n(Cc3ccc(C(F)(F)F)cc3)c12)C1CCC1 [Example 2.40, 8-(3-chlorophenyl)-6-{[(1R)-1-cyclobutylethyl]amino}-7-[4-(trifluoromethyl)benzyl]-7H-purine-2-carboxylic acid] | 30
CNS(=O)(=O)c1ccc(-c2nc3nc(C(=O)O)nc(N[C@H](C)C4CCC4)c3n2Cc2ccc(C(F)(F)F)cc2)cc1 [Example 2.41, 6-{[(1R)-1-cyclobutylethyl]amino}-8-[4-(methylsulfamoyl)phenyl]-7-[4-(trifluoromethyl)benzyl]-7H-purine-2-carboxylic acid] | 44
C[C@@H](Nc1nc(C(=O)O)nc2nc(C3CC3)n(Cc3ccc(Cl)cc3)c12)C1CC1 [Example 2.42, 7-(4-chlorobenzyl)-8-cyclopropyl-6-{[(1R)-1-cyclopropylethyl]amino}-7H-purine-2-carboxylic acid] | 265
C[C@@H](Nc1nc(C(=O)O)nc2nc(Cc3ccccc3)n(Cc3ccc(Cl)cc3)c12)C1CC1 [Example 2.43, 8-benzyl-7-(4-chlorobenzyl)-6-{ [(1R)-1-cyclopropylethyl]amino}-7H-purine-2-carboxylic acid] | 28.1
C[C@@H](Nc1nc(C(=O)O)nc2nc(-c3cccnc3)n(Cc3ccc(C(F)(F)F)cc3)c12)C1CC1 [Example 2.44, 6-{[(1R)-1-cyclopropylethyl]amino}-8-pyridin-3-yl-7-[4-(trifluoromethyl)benzyl]-7H-purine-2-carboxylic acid] | 640
C[C@@H](Nc1nc(C(=O)O)nc2nc(-c3cccc(C#N)c3)n(Cc3ccc(C(F)(F)F)cc3)c12)C1CCC1 [Example 2.45, 8-(3-cyanophenyl)-6-{[(1R)-1-cyclobutylethyl]amino}-7-[4-(trifluoromethyl)benzyl]-7H-purine-2-carboxylic acid] | 63
COc1ncc(-c2nc3nc(C(=O)O)nc(N[C@H](C)C4CCC4)c3n2Cc2ccc(C(F)(F)F)cc2)cc1Cl [Example 2.46, 8-(5-chloro-6-methoxypyridin-3-yl)-6-{[(1R)-1-cyclobutylethyl]amino}-7-[4-(trifluoromethyl)benzyl]-7H-purine-2-carboxylic acid] | 51
C[C@@H](Nc1nc(C(=O)O)nc2nc(-c3ccccc3F)n(Cc3ccc(C(F)(F)F)cc3)c12)C1CCC1 [Example 2.47, 6-{[(1R)-1-cyclobutylethyl]amino}-8-(2-fluorophenyl)-7-[4-(trifluoromethyl)benzyl]-7H-purine-2-carboxylic acid] | 26
COc1ccc(-c2nc3nc(C(=O)O)nc(N[C@H](C)C4CC4)c3n2Cc2ccc(C(F)(F)F)cc2)cn1 [Example 2.48, 6-{[(1R)-1-cyclopropylethyl]amino}-8-(6-methoxypyridin-3-yl)-7-[4-(trifluoromethyl)benzyl]-7H-purine-2-carboxylic acid] | 680
COc1ncc(-c2nc3nc(C(=O)O)nc(N[C@H](C)C4CC4)c3n2Cc2ccc(C(F)(F)F)cc2)cc1F [Example 2.49, 6-{[(1R)-1-cyclopropylethyl]amino}-8-(5-fluoro-6-methoxypyridin-3-yl)-7-[4-(trifluoromethyl)benzyl]-7H-purine-2-carboxylic acid] | 310
Cc1cc(C)cc(-c2nc3nc(C(=O)O)nc(N[C@H](C)C4CC4)c3n2Cc2ccc(C(F)(F)F)cc2)c1 [Example 2.50, 6-{[(1R)-1-cyclopropylethyl]amino}-8-(3,5-dimethylphenyl)-7-[4-(trifluoromethyl)benzyl]-7H-purine-2-carboxylic acid] | 120
C[C@@H](Nc1nc(C(=O)O)nc2nc(-c3cnc(O)c(F)c3)n(Cc3ccc(C(F)(F)F)cc3)c12)C1CC1 [Example 2.51, 6-{[(1R)-1-cyclopropylethyl]amino}-8-(5-fluoro-6-hydroxypyridin-3-yl)-7-[4-(trifluoromethyl)benzyl]-7H-purine-2-carboxylic acid] | 1230
Cc1ccc(-c2nc3nc(C(=O)O)nc(N[C@H](C)C4CC4)c3n2Cc2ccc(C(F)(F)F)cc2)c(C)c1 [Example 2.52, 6-{[(1R)-1-cyclopropylethyl]amino}-8-(2,4-dimethylphenyl)-7-[4-(trifluoromethyl)benzyl]-7H-purine-2-carboxylic acid] | 309
C[C@@H](Nc1nc(C(=O)O)nc2nc(-c3ccc(Cl)c(F)c3)n(Cc3ccc(C(F)(F)F)cc3)c12)C1CC1 [Example 2.53, 8-(4-chloro-3-fluorophenyl)-6-{[(1R)-1-cyclopropylethyl]amino}-7-[4-(trifluoromethyl)benzyl]-7H-purine-2-carboxylic acid] | 200
Cc1cc(OC(F)(F)F)ccc1-c1nc2nc(C(=O)O)nc(N[C@H](C)C3CC3)c2n1Cc1ccc(C(F)(F)F)cc1 [Example 2.54, 6-{[(1R)-1-cyclopropylethyl]amino}-8-[2-methyl-4-(trifluoromethoxy)phenyl]-7-[4-(trifluoromethyl)benzyl]-7H-purine-2-carboxylic acid] | 826
C[C@@H](Nc1nc(C(=O)O)nc2nc(-c3ccccc3Cl)n(Cc3ccc(C(F)(F)F)cc3)c12)C1CC1 [Example 2.55, 8-(2-chlorophenyl)-6-{[(1R)-1-cyclopropylethyl]amino}-7-[4-(trifluoromethyl)benzyl]-7H-purine-2-carboxylic acid] | 98.3
C[C@@H](Nc1nc(C(=O)O)nc2nc(-c3cccc(F)c3)n(Cc3ccc(C(F)(F)F)cc3)c12)C1CC1 [Example 2.56, 6-{[(1R)-1-cyclopropylethyl]amino}-8-(3-fluorophenyl)-7-[4-(trifluoromethyl)benzyl]-7H-purine-2-carboxylic acid] | 261
C[C@@H](Nc1nc(C(=O)O)nc2nc(-c3ccc(C#N)cc3)n(Cc3ccc(C(F)(F)F)cc3)c12)C1CC1 [Example 2.57, 8-(4-cyanophenyl)-6-{[(1R)-1-cyclopropylethyl]amino}-7-[4-(trifluoromethyl)benzyl]-7H-purine-2-carboxylic acid] | 432
C[C@@H](Nc1nc(C(=O)O)nc2nc(-c3ccc(Cl)cc3Cl)n(Cc3ccc(C(F)(F)F)cc3)c12)C1CC1 [Example 2.58, 6-{[(1R)-1-cyclopropylethyl]amino}-8-(2,4-dichlorophenyl)-7-[4-(trifluoromethyl)benzyl]-7H-purine-2-carboxylic acid] | 213
Cc1cccc(-c2nc3nc(C(=O)O)nc(N[C@H](C)C4CC4)c3n2Cc2ccc(C(F)(F)F)cc2)c1C [Example 2.59, 6-{[(1R)-1-cyclopropylethyl]amino}-8-(2,3-dimethylphenyl)-7-[4-(trifluoromethyl)benzyl]-7H-purine-2-carboxylic acid] | 147
C[C@@H](Nc1nc(C(=O)O)nc2nc(-c3ccc4ccccc4c3)n(Cc3ccc(C(F)(F)F)cc3)c12)C1CC1 [Example 2.60, 6-{[(1R)-1-cyclopropylethyl]amino}-8-naphthalen-2-yl-7-[4-(trifluoromethyl)benzyl]-7H-purine-2-carboxylic acid] | 306
